Assay results: US20210040074A1 (The United States of America,as represented by the …, priority 2018, published 2021)

Columns and labels:
D2R = D2R (Homo sapiens, UniProt P14416); assay: D2R β-arrestin BRET assay; conditions: dopamine alone; mean ± SEM
Description: (§2) Bioluminescence Resonance Energy Transfer (BRET) Assays. Experiments were performed in HEK239 cells transiently transfected with D1R-RLuc8 and β-arrestin-mVenus (β-arrestin BRET) or Gαs-mVenus+β1+γ2 (Gs BRET) using the polyethylenimine (PEI) transfection method. […] Appropriate amounts of DNA were combined with 3 μg/μL PEI per μg of DNA in nonsupplemented DMEM and incubated with the cells overnight. Experiments were performed 48 hours post-transfection. On experiment day, cells were collected and resuspended in Dulbecco's Phosphate-Buffered Saline (DPBS) with Ca2+ and Mg2++0.2 mM sodium metabisulfite+5.5 mM glucose.

human D1R [1] = molecular target: T1, human D1R (Homo sapiens, UniProt P21728); assay: D1 cAMP accumulation assay (D1R-HEK293 cells, DiscoverX HitHunter); conditions: fold change of dopamine EC50, 50 μM compound
Description: (§3) cAMP Accumulation Assay. Assays were performed on D1R-HEK293 (Codex Biosolutions, Gaithersburg, Md.) cells stably expressing the human D1R. HEK293 cell lines were maintained in Dulbecco's modified Eagles medium, supplemented with 10% fetal bovine serum, 100 U/ml penicillin, 100 μg/ml streptomycin, 1 mM sodium pyruvate, and 250 μg/ml G418 and incubated at 37° C., 5% CO2, and 90% humidity. […] After 18-24 h incubation at 37° C., 5% CO2, and 90% humidity, the media was removed and replaced with 5 μL/well PBS. […] Briefly, antibody and working solution was added to each well according to the manufacturer's protocol, and incubated in the dark at room temperature for 60 min. Following incubation, enzyme acceptor reagent was added to the plates and luminescence (RLU) was measured (FDSS μCell, Hamamatsu Photonics K. K., Bridgewater, N.J.) following a 3 h incubation in the dark at room temperature.

D4R = molecular target: T2, D4R (Homo sapiens, UniProt P21917); assay: D4 β-arrestin recruitment assay (DiscoverX PathHunter, CHO-K1 cells); type: cell-based; set-up: inferred from the same PathHunter system described for D1R and D5R; host or cells: CHO-K1; conditions: fold change of dopamine EC50, 50 μM compound
T2 sequence (P21917 1-419): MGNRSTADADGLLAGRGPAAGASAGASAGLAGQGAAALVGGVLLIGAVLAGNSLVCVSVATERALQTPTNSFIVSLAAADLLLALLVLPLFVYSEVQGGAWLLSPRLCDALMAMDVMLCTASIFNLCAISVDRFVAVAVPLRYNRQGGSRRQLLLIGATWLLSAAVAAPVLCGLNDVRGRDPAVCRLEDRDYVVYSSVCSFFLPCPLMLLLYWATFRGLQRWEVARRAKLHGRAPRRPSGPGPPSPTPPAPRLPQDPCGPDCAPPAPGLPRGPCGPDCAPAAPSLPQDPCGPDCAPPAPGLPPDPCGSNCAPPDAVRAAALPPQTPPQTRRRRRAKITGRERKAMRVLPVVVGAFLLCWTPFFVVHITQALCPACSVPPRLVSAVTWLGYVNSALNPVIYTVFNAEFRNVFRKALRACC
Description: (§1) β-arrestin Recruitment Assay. Agonist-mediated recruitment of β-arrestin-2 to all five DARs was determined using the DiscoveRx PathHunter complementation assay (DiscoverX Inc, Fremont, Calif.), as previously described (Free, et. al., 2014; Conroy, et. al., 2015). […] Following 18-24 h of incubation, the cells were treated with the indicated concentrations of compound in PBS buffer containing 0.2 mM sodium metabisulfite, and incubated at 37° C. for 90 min. DiscoverX reagent was added to cells according to the manufacturer's protocol, followed by a 60 min incubation in the dark at room temperature. Luminescence was measured on a Hamamatsu FDSS μ-Cell reader (Hamamatsu, Bridgewater, N.J.) and data were collected using the FDSS software.

D5 [2] = molecular target: T3, D5 (Homo sapiens, UniProt P21918); assay: D5 cAMP assay; conditions: fold change of dopamine EC50, 50 μM compound
Description: as §3

human D1R [3] = molecular target: T1, human D1R; assay: D1R β-arrestin recruitment assay (DiscoverX PathHunter, CHO-K1 cells); conditions: fold change of dopamine EC50, 50 μM compound
Description: β-arrestin Recruitment Assay. […] Following 18-24 h of incubation, the cells were treated with the indicated concentrations of compound in PBS buffer containing 0.2 mM sodium metabisulfite, and incubated at 37° C. for 90 min. DiscoverX reagent was added to cells according to the manufacturer's protocol, followed by a 60 min incubation in the dark at room temperature. Luminescence was measured on a Hamamatsu FDSS μ-Cell reader (Hamamatsu, Bridgewater, N.J.) and data were collected using the FDSS software.
The DiscoverX PathHunter β-Arrestin Assay was used to measure β-arrestin reuitment to the D1R following the manufacturer's instructions.

D5 [4] = molecular target: T3, D5; assay: D5R β-arrestin recruitment assay (DiscoverX PathHunter, CHO cells); type: cell-based; set-up: host or cells: CHO-K1; conditions: fold change of dopamine EC50, 50 μM compound
Description: as §1, with “Assay.” for “Assay. Agonist-mediated recruitment of β-arrestin-2 to all five DARs was determined using the DiscoveRx PathHunter complementation assay (DiscoverX Inc, Fremont, Calif.), as previously described (Free, et. al., 2014; Conroy, et. al., 2015).”
Each PAM was also examined in the absence of DA as an agonist, as indicated.

β2AR = β2AR (Homo sapiens, UniProt P07550); assay: β2AR β-arrestin BRET assay; conditions: epinephrine alone; mean ± SEM
Chain of β2AR (P07550 whole entry): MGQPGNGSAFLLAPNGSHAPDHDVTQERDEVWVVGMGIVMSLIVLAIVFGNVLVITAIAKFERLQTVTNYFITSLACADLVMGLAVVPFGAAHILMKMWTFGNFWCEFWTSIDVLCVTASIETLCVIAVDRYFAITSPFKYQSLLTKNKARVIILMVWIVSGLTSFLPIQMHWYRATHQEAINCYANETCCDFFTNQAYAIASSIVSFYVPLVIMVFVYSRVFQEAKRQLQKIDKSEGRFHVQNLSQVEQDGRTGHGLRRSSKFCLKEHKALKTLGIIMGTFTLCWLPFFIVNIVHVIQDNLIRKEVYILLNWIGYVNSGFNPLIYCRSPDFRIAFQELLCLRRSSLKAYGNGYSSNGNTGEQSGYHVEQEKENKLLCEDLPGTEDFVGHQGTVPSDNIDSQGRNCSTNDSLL
Description: as §2

T3 sequence (P21918 whole entry): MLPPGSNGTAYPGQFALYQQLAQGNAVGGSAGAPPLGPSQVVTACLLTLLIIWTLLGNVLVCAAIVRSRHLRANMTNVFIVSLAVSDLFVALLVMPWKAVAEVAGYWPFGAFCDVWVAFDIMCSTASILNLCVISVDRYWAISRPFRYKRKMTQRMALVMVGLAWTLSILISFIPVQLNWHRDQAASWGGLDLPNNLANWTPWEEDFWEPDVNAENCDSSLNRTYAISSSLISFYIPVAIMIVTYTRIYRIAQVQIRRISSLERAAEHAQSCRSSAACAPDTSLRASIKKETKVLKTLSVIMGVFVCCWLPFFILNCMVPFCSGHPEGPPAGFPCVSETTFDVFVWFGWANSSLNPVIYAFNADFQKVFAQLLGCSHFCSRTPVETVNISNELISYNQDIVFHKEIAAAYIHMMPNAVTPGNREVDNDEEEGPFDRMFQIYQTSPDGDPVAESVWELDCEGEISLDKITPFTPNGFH
T1 sequence (P21728 whole entry): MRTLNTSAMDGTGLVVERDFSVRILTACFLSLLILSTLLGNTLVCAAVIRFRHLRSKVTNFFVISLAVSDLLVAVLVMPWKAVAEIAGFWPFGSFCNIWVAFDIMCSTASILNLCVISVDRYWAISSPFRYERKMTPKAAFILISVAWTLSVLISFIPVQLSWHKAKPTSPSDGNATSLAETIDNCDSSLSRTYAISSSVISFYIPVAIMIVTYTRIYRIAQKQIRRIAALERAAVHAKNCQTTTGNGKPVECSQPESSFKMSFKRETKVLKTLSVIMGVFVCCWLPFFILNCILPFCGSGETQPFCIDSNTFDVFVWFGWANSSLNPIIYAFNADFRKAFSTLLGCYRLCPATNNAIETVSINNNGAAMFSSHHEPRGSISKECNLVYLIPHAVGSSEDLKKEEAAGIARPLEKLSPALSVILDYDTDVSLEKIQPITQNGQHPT
Chain of D2R (P14416 whole entry): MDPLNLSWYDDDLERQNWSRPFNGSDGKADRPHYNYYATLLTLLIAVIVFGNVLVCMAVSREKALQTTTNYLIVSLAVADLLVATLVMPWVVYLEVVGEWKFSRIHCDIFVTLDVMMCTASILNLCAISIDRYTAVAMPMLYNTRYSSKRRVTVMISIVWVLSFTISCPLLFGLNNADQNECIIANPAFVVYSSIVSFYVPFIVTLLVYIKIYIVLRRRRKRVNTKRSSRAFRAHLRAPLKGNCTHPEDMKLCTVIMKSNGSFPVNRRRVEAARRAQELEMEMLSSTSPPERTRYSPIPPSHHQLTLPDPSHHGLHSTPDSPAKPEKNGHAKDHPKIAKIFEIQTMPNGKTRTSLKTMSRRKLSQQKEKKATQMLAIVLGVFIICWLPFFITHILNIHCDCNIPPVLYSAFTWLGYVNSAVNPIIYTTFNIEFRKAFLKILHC

Row | Structure (SMILES) | D2R Agonist Emax (% Ctrl) (D2R) | D1 cAMP: DA + 50 μM PAM, Fold Chg EC50 (human D1R [1]) | D4 Beta-Arrestin: DA + 50 μM PAM, Fold Change EC50 (D4R) | D5 cAMP: DA + 50 μM PAM, Fold Change EC50 (D5 [2]) | D1 Beta-Arrestin: DA + 50 μM PAM, Fold Chg EC50 (human D1R [3]) | D5 Beta-Arrestin: DA + 50 μM PAM, Fold Change EC50 (D5 [4]) | β2AR Agonist Emax (% Ctrl) (β2AR)
1 | CNC[C@H](O)c1ccc(O)c(O)c1 [Epinephrine, epinephrine, reference compound] |  |  |  |  |  |  | 99.9 ± 1.18 % Ctrl
2 | Cn1c2ccccc2c(=O)c2c(=O)n(-c3ccccc3)c(CC3CCCCC3)nc21 [Compound 20] |  |  | 2.14 | 1.30 |  | 2.38 | 
3 | Cn1c2ccccc2c(=O)c2c(=O)n(-c3ccccc3)c(C3CC3)nc21 [Compound 23] |  |  | 1.32 | 0.57 |  | 2.58 | 
4 | CC(C)Cc1nc2c(c(=O)c3ccccc3n2C)c(=O)n1-c1ccccc1 [Compound 21] |  |  | 0.62 | 2.22 |  | 4.56 | 
5 | CC(C)(C)C1CCc2c(sc(NC(=O)c3cncc(Br)c3)c2C(N)=O)C1 (stereo not shown) [Compound 29] |  | 1.30 | 1.20 | 0.66 | 1.05 | 1.68 | 
6 | Cn1c2ccccc2c(=O)c2c(=O)n(-c3cccc(Cl)c3)c(CC3CCCCC3)nc21 [Compound 18] |  |  | 1.57 | 0.34 |  | 1.35 | 
7 | Cn1c2ccccc2c(=O)c2c(=O)n(-c3ccc(Cl)cc3)c(CC3CCCCC3)nc21 [Compound 17] |  |  | 1.38 | 1.43 |  | 1.09 | 
8 | CC(C)(C)C1CCc2c(sc(NC(=O)c3ccccn3)c2C(N)=O)C1 (stereo not shown) [Compound 30] |  | 1.31 | 0.43 | 0.60 | 1.05 | 0.48 | 
9 | COc1ccc(-n2c(CC3CCCCC3)nc3c(c(=O)c4ccccc4n3C)c2=O)cc1 [Compound 16] |  | 0.34 | 1.45 | 0.67 | 0.45 | 0.73 | 

The next lines start with results.

Row | D2R Agonist Emax (% Ctrl) (D2R) | D1 cAMP: DA + 50 μM PAM, Fold Chg EC50 (human D1R [1]) | D4 Beta-Arrestin: DA + 50 μM PAM, Fold Change EC50 (D4R) | D5 cAMP: DA + 50 μM PAM, Fold Change EC50 (D5 [2]) | D1 Beta-Arrestin: DA + 50 μM PAM, Fold Chg EC50 (human D1R [3]) | D5 Beta-Arrestin: DA + 50 μM PAM, Fold Change EC50 (D5 [4]) | Structure (SMILES) | β2AR Agonist Emax (% Ctrl) (β2AR)
10 | 100 ± 12.48 % Ctrl |  |  |  |  |  | NCCc1ccc(O)c(O)c1 [Dopamine, dopamine, reference compound] | 
11 |  | 2.50 | 1.19 | 0.86 | 0.83 | 0.26 | NC(=O)c1c(NC(=O)c2ccccn2)sc2c1CCCC2 [Compound 36] | 
12 |  | 1.53 | 0.81 | 1.57 | 0.97 | 1.86 | CC1CCc2c(sc(NC(=O)c3ccncc3)c2C(N)=O)C1 (stereo not shown) [Compound 33] | 
13 |  | 1.28 | 0.73 | 1.25 | 0.77 | 0.92 | CC(C)(C)C1CCc2c(sc(NC(=O)c3ccc4ccccc4n3)c2C(N)=O)C1 (stereo not shown) [Compound 32] | 
14 |  | 0.7 | 0.68 |  | 1.97 | 0.48 | NC(=O)c1c(NC(=O)c2cccnc2)sc2c1CCC(c1ccccc1)C2 (stereo not shown) [Compound 40] | 
15 |  | 1.20 | 1.34 | 0.45 | 1.35 | 0.83 | CC1CCc2c(sc(NC(=O)c3ccc4ccccc4n3)c2C(N)=O)C1 (stereo not shown) [Compound 31] | 
16 |  | 1.79 | 1.07 | 0.76 | 0.97 | 1.06 | CC1CCc2c(sc(NC(=O)c3cccnc3)c2C(N)=O)C1 (stereo not shown) [Compound 35] | 
17 |  | 1.04 | 2.03 |  | 3.01 | 0.65 | CCOC(=O)c1c(NC(=O)c2cccnc2)sc2c1CCC(C(C)(C)C)C2 (stereo not shown) [Compound 39] | 
18 |  | 2.29 | 2.26 |  | 10.35 | 0.78 | CC(C)(C)C1CCc2c(sc(NC(=O)c3cccnc3)c2C(N)=O)C1 (stereo not shown) [Compound 38] | 
19 |  | 1.61 | 1.06 | 1.64 | 1.05 | 0.47 | CC1CCc2c(sc(NC(=O)c3ccccn3)c2C(N)=O)C1 (stereo not shown) [Compound 37] | 
20 |  | 1.30 | 0.96 | 1.45 | 0.61 | 1.28 | CN1CCc2c(sc(NC(=O)c3ccncc3)c2C#N)C1 [Compound 34] | 
